Data on three molecules can be found in patent US7579338B2, “Methods and compositions for treating atheroma, tumors and other neoplastic tissues” (Pharmacyclics, Inc., priority 1999, dated 2009).

Test [1] concerns MES-SA human uterine cells. The test is described as follows: Proliferation of MES-SA cells with ascorbate and texaphyrin (MTT). Type of test: cell-based. The settings on record: ascorbate at or below 333 μM, absence of texaphyrin. The method, then: The proliferation of MES-SA human uterine cells (Harker, W. G.; MacKintosh, F. R.; Sikic, B. I. Cancer Res. 1983, 43, 4943-4950) grown in RPMI-1640 medium in the presence of ascorbate or complex was used to assess the formation of hydrogen peroxide under cell culture conditions.
(§1) 5A. Materials and Methods. MES-SA cells were allowed to adhere to (4) 96-well microtiter plates (4000 cells per well) overnight in 160 μL RPMI medium. Stock ascorbate 3.0 mM in medium (80 μL) was serially diluted (1:3) in rows B through F (discarding the final 80 μL). Row G was used for no-ascorbate control. Stock solutions of GdTex (2 mM in 5% mannitol) diluted in medium and 5% mannitol were prepared and added to the plates to give a final volume of 200 μL in all wells. Columns 2 and 3 contained 100 μM GdTex; columns 4 and 5 contained 75 μM GdTex, columns 6 and 7 contained 50 μM GdTex; columns 8 and 9 contained 25 μM GdTex; and columns 10 and 11 contained no GdTex (all concentrations final). Final mannitol concentration was 0.25% in all wells. The plates were incubated at 37 C under a 5% CO2/95% air atmosphere. Complex-containing medium was exchanged for fresh medium after 5 hours, and plates were incubated an additional 72 hours prior to analysis for viability using the tetrazolium dye, MTT (Mosmann, T. J. Immunol. Methods 1983, 65, 55-63). In brief, 20 μL MTT dye (Sigma Chemical, St. Louis, Mo., catalogue no. M 2128, 5 mg/mL solution in phosphate buffered saline) was added to cells in media to give a final volume of 200 μL. The plates were incubated at 37° C. for ca. 2 hours, whereupon the media was removed and isopropyl alcohol (100 μL/well) was added. Plates were vortexed for ca. 3 minutes to dissolve MTT formazan, then read on a microplate reader at 560-650 nm. Plate absorbances were normalized to wells containing neither ascorbate nor GdTex to allow plate to plate comparison. Data for each concentration of GdTex and ascorbate is the average of eight wells.
The proliferation of MES-SA human uterine cells grown in RPMI-1640 medium in the presence of ascorbate and LuTex was used to assess the production of hydrogen peroxide under cell culture conditions following the protocol outlined in the previous example.

Test [2] relates to EMT-6 mouse mammary sarcoma cells. The test is described as follows: Proliferation of EMT-6 cells with NADPH and texaphyrin (MTT). Type of test: cell-based. The settings on record: NADPH at or below 1000 μM, absence of texaphyrin. The method, then: as §1
The proliferation of EMT-6 mouse mammary sarcoma (Rockwell, S. C., et al., J. Natl. Cancer Inst. 1972, 49, 735-749) cells grown in RPMI-1640 medium in the presence of NADPH and motexafin lutetium was used to assess the production of hydrogen peroxide under cell culture conditions following the protocol outlined in the previous example.
The proliferation of EMT-6 mouse mammary sarcoma (Rockwell, S. C., et al., J. Natl. Cancer Inst. 1972, 49, 735-749) cells grown in RPMI-1640 medium in the presence of NADPH and GdTex was used to assess the production of hydrogen peroxide under cell culture conditions following the protocol outlined in the previous example.

Test [3] concerns MES-SA cells. The test is described as follows: Response of MES-SA cells to ionizing radiation, microtiter plate format (MTT). Type of test: cell-based, human. Conditions: BSO 0 to 100 μM and higher, data not shown. On the procedure:
The response of MES-SA cells to ionizing radiation was studied using the microtiter plate format to confirm radiation sensitization potential. This assay is used to assess rapidly the effects of irradiation under a variety of conditions.
10A. Materials and Methods. MES-SA cells were incubated at 37° C. and allowed to adhere to 96-well microtiter plates (1000 cells per well) overnight in 160 μL McCoys 5A containing 10% FBS (Gibco-BRL) and ca. 2% penicillin/streptomycin solution (Sigma). BSO or media (20 μL) was added, respectively to test and control wells, 24 h prior to irradiation. Metallotexaphyrin complex (up to 100 μM) was added to the test wells to give a final volume of 200 μL, 18-24 h prior to irradiation. Plates were irradiated using a 137Cs irradiator (Model 40 Gammacell, J. L. Shepherd & Assoc., San Fernando, Calif.) at a dose rate of 33.25 Rad/min. A lead brick (2″ diameter) was positioned to protect a column of wells (no. 11) from ionizing radiation. Plate absorbances were normalized to shielded wells to allow plate-to-plate comparison. […] Reversing the position of texaphyrin complex-containing wells had no effect on assay outcome. Medium was exchanged immediately after irradiation, and plates were incubated an additional 120 h prior to analysis for viability using the MTT assay (as described, e.g., in Example 5).

The test system of test [4] is MES-SA human uterine cells. Briefly: Proliferation of MES-SA cells with BSO and GdTex (MTT). Format: cell-based. The settings on record: Homo sapiens, MES-SA; absence of GdTex, highest (50 μM) concentration tested, ca. 72 hours; read-out: inhibitory effect of BSO alone. On the procedure: The proliferation of MES-SA human uterine cells grown in McCoys 5A medium in the presence of a thiol depleting agent (BSO) or GdTex was used to assess the combined effect of these agents. The protocol outlined in the previous example was followed, with the following changes:
1. The serially diluted compound was 200 μM BSO (Sigma Chemical, St. Louis, Mo., catalogue no. G1404).
2. The cells were allowed to incubate in the presence of the two drugs for ca. 72 hours, prior to exchange of media and analysis using the colorimetric (MTT) assay, as described, e.g., in Example 5.

In test [5] the test system is MES-SA cells. Briefly: Radiation sensitization by clonogenic assay. Type of test: cell-based, human. Conditions: 50 μM GdTex or 100 μM BSO for 24 h prior to irradiation, ascorbate-containing medium. On the procedure:
The response of MES-SA cells to ionizing radiation was studied using a clonogenic assay format to confirm radiation sensitization potential.
Materials and Methods. MES-SA cells (200 to 5,000 cells per dish) were plated in T-25 flasks in 8.5 mL McCoys 5A containing 10% FBS (Gibco-BRL) and ca. 2% penicillin/streptomycin solution (Sigma) and incubated at 37° C. overnight. Stock BSO, ascorbate, GdTex (or a control 5% mannitol) solutions were prepared and 0.5 mL of each added to each flask to give a final volume of 10 mL (final concentrations of BSO, ascorbate and GdTex were 100 μM, 5 μM and 50 μM, respectively) and the cells incubated for 24 hr, whereupon the flasks were irradiated using a 137Cs irradiator (Model 40 Gammacell, J. L. Shepherd & Assoc., San Fernando, Calif.) at a dose rate of 0.805 Gy/min. Medium was removed immediately after irradiation, the cells were washed with fresh medium (5.0 mL) followed by the addition of fresh medium (10 mL) and incubation for an additional 11 days. Colonies were fixed and stained with 1% crystal violet and then counted.

On to `O=C1O[C@H]([C@@H](O)CO)C(O)=C1O` [Ascorbate, ascorbic acid, reference compound], for which the “inhibitory effect on cell proliferation, ascorbate alone” value in test [1] is reported as “no inhibitory effect”.

For `NC(=O)C1=CN([C@@H]2O[C@H](COP(=O)(O)OP(=O)(O)OC[C@H]3O[C@@H](n4cnc5c(N)ncnc54)[C@H](OP(=O)(O)O)[C@@H]3O)[C@@H](O)[C@H]2O)C=CC1` [NADPH, reference compound], the “inhibitory effect on cell proliferation, NADPH alone” value in test [2] is “no inhibitory effect”.

In the case of `CCCCS(=N)(=O)CC[C@H](N)C(=O)O` (stereo partly drawn) [BSO, L-Buthionine-[S,R]-Sulfoximine, reference compound], in test [3], the “effect of BSO on GdTex radiation sensitization” value is “dose-dependent from 0 to 100 μM, and leveled off at higher BSO concentrations”. The inhibition at 50 µM in test [4] was about 10%. The “effect on clonogenic survival as a function of radiation, single agent” value in test [5] is recorded as “relatively small effect on clonogenic survival”.
